Experiment [1] has as its system A2780 ovarian cancer cells. Description: Proliferation assay (Alamar Blue). Conditions: Homo sapiens, 96 h, 4-day incubation, read-out: pIC50 (negative log value of the IC50-value) (converted). Type of experiment: cell-based. How it is done: Cellular activity of the compounds of formula (I) was determined on A2780 tumour cells using a colorimetric assay for cell toxicity or survival (see example C.2).
The human A2780 ovarian cancer cells were a kind gift from Dr. T. C. Hamilton (Fox Chase Cancer Centre, Pennsylvania, U.S.A.). The cells were cultured in RPMI 1640 medium supplemented with 2 mM L-Glutamine, 50 μg/ml gentamicin and 10% fetal calf serum.
Resazurin was purchased from Aldrich (Prod. No. 199303). Potassium ferrocyanide, potassium ferricyanide, KH2PO4 and K2HPO4 were purchased from Sigma (Prod. Nos. P9387, P8131, P5655 and P8281, respectively).
Potassium Phosphate Buffer 0.1 M (PPB) was made as follows: 2.72 gram KH2PO4 and 13.86 gram K2HPO4 were dissolved in 500 ml milli-Q H2O, the pH was adjusted to pH 7.4 and the volume was brought to 1 liter with milli-Q H2O; the buffer was filter sterilised and stored at room temperature. Resazurin stock solution (PPB-A) was prepared fresh by dissolving 45 mg resazurin in 15 ml PBS. 30 mM potassium ferricyanide (PPB-B) was prepared by dissolving 0.987 gram potassium ferricyanide in 100 ml PPB. 30 mM potassium ferrocyanide (PPB-C) was prepared by dissolving 1.266 gram potassium ferrocyanide in 100 ml PPB.
Mixture of PPB-A, PPB-B and PPB-C was prepared by mixing equal volumes of the respective solutions. Resazurin work solution (herein termed “Alamar Blue” solution) was prepared by diluting said mixture 20× (vol/vol) in PPB and filter sterilising; the Alamar Blue solution could be kept at 4° C. for a maximum of 2 weeks.
For experiments in 384 wells plates the cells were seeded at a density of 5×10^3 cells/ml in Falcon 384-well culture plates (Life Technologies, Merelbeke, Belgium), black with clear bottom, in 45 μl culture medium. Cells were allowed to adhere to plastic for 24 hr. The tested compound was pre-diluted (1/50 in culture medium) and 5 μl pre-diluted compound was added to the wells. Following 4-day incubation, 10 μl of the Alamar Blue solution was added to each well and the cells were further incubated for 5 hrs (A2780) at 37° C. The fluorescence intensity was measured for each well with a Fluorescence plate reader (Fluorskan, Labsystems, 540 nm excitation and 590 nm emission)
The antiproliferative activity was calculated as percentage of remaining viable cells in treated versus control (untreated cells) conditions. Within an experiment, the result for each experimental condition is the mean of 3 replicate wells. When appropriate, the experiments were repeated to establish full concentration-response curves. When appropriate, IC50-values (concentration of the drug, needed to reduce cell growth to 50% of the control) were computed using probit analysis for graded data (Finney, D. J., Probit Analyses, 2nd Ed. Chapter 10, Graded Responses, Cambridge University Press, Cambridge 1962). Herein the effects of test compounds are expressed as pIC50 (the negative log value of the IC50-value) (see Table 4).

Another experiment deals with p53 in A2780 cells. Description: p53 ELISA (preservation of p53 in A2780 cells). The class given is cell-based. Particulars: Homo sapiens, treated with compound for 16 hours, read-out: p53-elisa LAD (lowest dose giving at least 140% of the value for p53 present in the control). The procedure:
The capacity of the compounds to preserve p53 in A2780 cells was measured with the p53 enzyme linked immunosorbent assay (ELISA). The p53 assay is a “sandwich” enzyme immunoassay employing two polyclonal antibodies. A polyclonal antibody, specific for the p53 protein, has been immobilized onto the surface of the plastic wells. Any p53 present in the sample to be assayed will bind to the capture antibody. The biotinylated detector polyclonal antibody also recognizes p53 protein, and will bind to any p53, which has been retained by the capture antibody. The detector antibody, in turn, is bound by horseradish peroxidase-conjugated streptavidin. The horseradish peroxidase catalyses the conversion of the chromogenic substrate o-phenylene diamine, the intensity of which is proportional to the amount of p53 protein bound to the plate. The coloured reaction product is quantified using a spectrophotometer. Quantitation is achieved by the construction of a standard curve using known concentrations of purified recombinant HIS tagged p53 protein (see example C.1).
A2780 cells (ATCC) were cultivated in RPMI 1640 supplemented with 10% fetal calf serum (FCS), 2 mM L-glutamine and gentamycin at 37° C. in a humidified incubator with 5% CO2.
A2780 cells were seeded at 20.000 cells per well in a 96 well plate, cultured for 24 hours and treated with compound for 16 hours at 37° C. in a humidified incubator. After incubation, the cells were washed once with phosphate-buffered saline and 30 μl, per well, low salt RIPA buffer (20 mM tris, pH7.0, 0.5 mM EDTA, 1% Nonidet P40, 0.5% DOC, 0.05% SDS, 1 mM PMSF, 1 μg/ml aprotinin and 0.5 μ/ml leupeptin) was added. Plates were placed on ice for 30 minutes to complete the lysis. p53 protein was detected in de lysates by using the sandwich ELISA, described below.
High binding polystyrene EIA/RIA 96 well plates (Costar 9018) were coated with the capture antibody pAb1801 (Abcam ab28-100) at a concentration of 1 μg/ml in coating buffer (0.1 M NaHCO3 pH8.2), 50 μl per well. The antibody was allowed to adhere overnight at 4° C. Coated plates were washed once with phosphate-buffered saline (PBS)/0.05% Tween 20 and 300 μl of blocking buffer (PBS, 1% bovine serum albumins (BSA)) was added, for an incubation period of 2 hours at room temperature. Dilutions of purified recombinant HIS tagged p53 protein, ranging from 3-200 ng/ml, were made in blocking buffer and used as standards.
Plates were washed twice with PBS/0.05% Tween 20 and blocking buffer or standards were added at 80 μl/well. To the standards, 20 μl of lysis buffer was added. The samples were added to the other wells at 20 μl lysate/well. After an overnight incubation at 4° C., plates were washed twice with PBS/0.05% Tween 20. Aliquots of 100 μl secondary polyclonal antibody p53(FL-393) (Tebubio, sc-6243) at a concentration of 1 μg/ml in blocking buffer were added to each well and allowed to adhere for 2 hours at room temperature. Plates were washed three times with PBS/0.05% Tween 20. Detection antibody anti-rabbit HRP (sc-2004, Tebubio) at 0.04 μg/ml in PBS/1% BSA was added and incubated for 1 hour at room temperature. Plates were washed three times with PBS/0.05% Tween 20 and 100 μl of substrate buffer was added (substrate buffer was prepared shortly before use by adding 1 tablet of 10 mg o-phenylene diamine (OPD) from Sigma and 125 μl 3% H2O2 to 25 ml OPD buffer: 35 mM citric acid, 66 mM Na2HPO4, pH5.6). After 5 to 10 minutes, colour reaction was stopped by adding 50 μl stop buffer (1 M H2SO4) per well. The absorbance at dual wavelengths of 490/655 nm was measured using a Biorad micro plate reader and the results were then analyzed.
For each experiment, controls (containing no drug) and a blank incubation (containing no cells or drugs) were run in parallel. The blank value was subtracted from all control and sample values. For each sample, the value of p53 (in absorbance units) was expressed as the percentage of the value for p53 present in the control. […]

The record followed here is patent US8288377B2, “Inhibitors of the interaction between MDM2 and p53” (Janssen Pharmaceutica N.V., priority 2007, dated 2012).

Structures are written as SMILES.

Consider `OCc1cc(Nc2cc(F)c3c(c2)OCCN3CCc2c[nH]c3ccccc23)ccn1` [Compound 69], for which the concentration for half-maximal inhibition (IC50) in experiment [1] is greater than 10 µM. For the same compound, the minimal effective concentration with p53 in A2780 cells is 10 µM.

Turning to `OC1CCc2c(Nc3cc(F)c4c(c3)OCCN4CCc3c[nH]c4ccccc34)ccnc21` (stereo not shown) [Compound 13], the IC50 in experiment [1] is 4.47 µM. Also, the minimal effective concentration in the experiment with p53 in A2780 cells came out at 1 µM.

On to `OCc1cc(Nc2ccc3c(c2)OCCN3CCc2csc3ccccc23)ccn1` [Compound 67], for which, in experiment [1], the IC50 is 5.01 µM. Moreover, the minimal effective concentration with p53 in A2780 cells worked out at 10 µM.

On to `Cc1cccc2c(CCN3CC(C)Oc4cc(Nc5ccncc5)ccc43)coc12` (stereo not shown) [Compound 53], for which the half-maximal inhibitory concentration (IC50) in experiment [1] is 3.47 µM. Also, in the experiment on p53 in A2780 cells, the minimal effective concentration was greater than 10 µM.

For the compound `CC1(C)CN(CCc2c[nH]c3ccccc23)c2ccc(Nc3ccnc(CO)c3)cc2O1` [Compound 78], the IC50 in experiment [1] was 6.17 µM. In addition, the minimal effective concentration in the experiment on p53 in A2780 cells was greater than 10 µM.

As for `CN1CCC2(CC1)CN(CCc1c[nH]c3ccccc13)c1ccc(Nc3ccnc(CO)c3)cc1O2` [Compound 43], in experiment [1], the IC50 was roughly 5.01 µM. Further, the minimal effective concentration in the experiment on p53 in A2780 cells is greater than 10 µM.

With `Cc1cccc2c(CCN3CCOc4cc(Nc5ccncc5)ccc43)c[nH]c12` [Compound 48], in experiment [1], the IC50 was 3.47 µM. In addition, the minimal effective concentration with p53 in A2780 cells is greater than 10 µM.

Take `OCc1cc(Nc2ccc3c(c2)OC2(CCNCC2)CN3CCc2c[nH]c3ccccc23)ccn1` [Compound 16]: the IC50 in experiment [1] is greater than 10 µM. In addition, the minimal effective concentration in the experiment with p53 in A2780 cells is greater than 10 µM.

For the compound `O=C1COc2cc(Nc3ccncc3)ccc2N1CCc1c[nH]c2ccccc12` [Compound 4], in experiment [1], the IC50 is greater than 10 µM. Besides, in the experiment on p53 in A2780 cells, the minimal effective concentration is greater than 10 µM.

On to `OCc1cc(Nc2ccc3c(c2)OCCN3CCc2c[nH]c3ccccc23)ccn1` [Compound 22], for which the concentration for half-maximal inhibition (IC50) in experiment [1] was 2.29 µM. For the same compound, the minimal effective concentration with p53 in A2780 cells came to 1 µM.

For `Cc1cccc2c(CCN3CCOc4cc(Nc5ccnc(CO)c5)ccc43)c[nH]c12` [Compound 72], the IC50 in experiment [1] is 4.68 µM. Besides, the minimal effective concentration with p53 in A2780 cells was greater than 10 µM.

For the compound `OCc1cc(Nc2ccc3c(c2)CCCN3CCc2c[nH]c3ccccc23)ccn1` [Compound 66], the IC50 in experiment [1] was 1.41 µM. Also, in the experiment with p53 in A2780 cells, the minimal effective concentration was found to be 3 µM.

For `CC1CN(CCc2c[nH]c3ccccc23)c2c(F)cc(Nc3ccncc3)cc2O1` (stereo not shown) [Compound 57], the minimal effective concentration in the experiment on p53 in A2780 cells was greater than 10 µM.

With `OC1CCc2c(Nc3ccc4c(c3)OCCN4CCc3c[nH]c4ccccc34)ccnc21` (stereo not shown) [Compound 1], the IC50 in experiment [1] was 0.427 µM. Besides, in the experiment with p53 in A2780 cells, the minimal effective concentration was 0.1 µM.

Turning to `CC1(C)CN(CCc2c[nH]c3ccccc23)c2ccc(Nc3ccncc3)cc2O1` [Compound 62], the IC50 in experiment [1] is 5.37 µM. The minimal effective concentration in the experiment on p53 in A2780 cells was greater than 10 µM.

As to `CC1Oc2cc(Nc3ccnc4c3CCC4O)ccc2N(CCc2c[nH]c3ccccc23)C1=O` (stereo not shown) [Compound 80], the IC50 in experiment [1] is 3.09 µM.

Turning to `CN1CCN(CCc2c[nH]c3ccccc23)c2ccc(Nc3ccncc3)cc21` [Compound 76], the IC50 in experiment [1] is 3.31 µM. The minimal effective concentration in the experiment with p53 in A2780 cells came out at 10 µM.

For the compound `OC1CCc2c(Nc3ccc4c(c3)OC3(CCCCC3)CN4CCc3c[nH]c4ccccc34)ccnc21` (stereo not shown) [Compound 29], in experiment [1], the IC50 was roughly 5.13 µM. Moreover, the minimal effective concentration in the experiment on p53 in A2780 cells was found to be 10 µM.

For the compound `CCC1(C)CN(CCc2c[nH]c3ccccc23)c2ccc(Nc3ccnc(CO)c3)cc2O1` (stereo not shown) [Compound 46], the IC50 in experiment [1] was 6.92 µM. The minimal effective concentration with p53 in A2780 cells was greater than 10 µM.

For the compound `OCc1cc(Nc2ccc3c(c2)OCCN3CCc2coc3ccccc23)ccn1` [Compound 68], the concentration for half-maximal inhibition (IC50) in experiment [1] is 5.25 µM. In addition, in the experiment with p53 in A2780 cells, the minimal effective concentration is greater than 10 µM.

For `Cc1cccc2c(CCN3C[C@@H](CO)Oc4cc(Nc5ccnc6c5CC[C@@H]6O)ccc43)c[nH]c12` [Compound 19], the minimal effective concentration with p53 in A2780 cells was greater than 10 µM.

`CC1CN(CCc2c[nH]c3ccccc23)c2ccc(Nc3ccnc(CO)c3)cc2O1` (stereo not shown) [Compound 79]: the minimal effective concentration in the experiment on p53 in A2780 cells came out at 10 µM.

As to `O=C1N(CCc2c[nH]c3ccccc23)c2ccc(Nc3ccncc3)cc2OC1(F)F` [Compound 60], the minimal effective concentration in the experiment on p53 in A2780 cells was greater than 10 µM.

`O=C1N(CCc2c[nH]c3ccccc23)c2ccc(Nc3ccnc(CO)c3)cc2OC1(F)F` [Compound 64]: in the experiment with p53 in A2780 cells, the minimal effective concentration came to 10 µM.

On to `Cc1cccc2c(CCN3CC4(CCNCC4)Oc4cc(Nc5ccnc6c5CCC6O)ccc43)c[nH]c12` (stereo not shown) [Compound 74], for which, in the experiment on p53 in A2780 cells, the minimal effective concentration is greater than 10 µM.

Take `Cc1cccc2c(CCN3CC4(CCN(C)CC4)Oc4cc(Nc5ccncc5)ccc43)c[nH]c12` [Compound 58]: the minimal effective concentration with p53 in A2780 cells was greater than 10 µM.

`Cc1cccc2c(CCN3CC(CO)Oc4cc(Nc5ccncc5)ccc43)c[nH]c12` (stereo not shown) [Compound 17]: the minimal effective concentration with p53 in A2780 cells is greater than 10 µM.

On to `Cc1cccc2c(CCN3CC(O)COc4cc(Nc5ccnc6c5CCC6O)ccc43)c[nH]c12` (stereo not shown) [Compound 18], for which the minimal effective concentration in the experiment with p53 in A2780 cells is greater than 10 µM.

On to `CC1CN(CCc2c[nH]c3ccccc23)c2c(F)cc(Nc3ccnc4c3CCC4O)cc2O1` (stereo not shown) [Compound 32], for which, in the experiment on p53 in A2780 cells, the minimal effective concentration is 3 µM.

As for `Cc1cccc2c(CCN3CC4(CCNCC4)Oc4cc(Nc5ccncc5)ccc43)c[nH]c12` [Compound 73], the minimal effective concentration with p53 in A2780 cells is greater than 10 µM.

On to `O=C1N(CCc2c[nH]c3ccccc23)c2ccc(Nc3ccnc4c3CCC4O)cc2OC1(F)F` (stereo not shown) [Compound 10], for which, in the experiment with p53 in A2780 cells, the minimal effective concentration came to 0.3 µM.
